Common to all, as to assay: NCI tumour cell line growth inhibition, 48 h
Assay [1] concerns HOP-18 NSCLC.
In assay [2] the test system is HCT-116 colon.
The subject of assay [3] is LXFL 529 NSCLC.
In assay [4] the test system is DLD-1 colon.
The subject of assay [5] is RXF-631 renal.
The test system of assay [6] is DMS 273 small cell lung.
Assay [7] concerns DMS 114 small cell lung.
Assay [8] relates to XF 498 CNS.
Assay [9] has as its system SNB-78 CNS.
The subject of assay [10] is MOLT-4 leukemia.
The test system of assay [11] is KM20L2 colon.
Assay [12] has as its system M19-MEL melanoma.
The test system of assay [13] is MDA-N.
Assay [14] deals with SN12K1 renal.
Assay [15] deals with P388 leukemia.
Assay [16] concerns P388/ADR leukemia.

Structures are written as SMILES.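 Results reflect a 48-hour exposure of cells in 96-well plates to compound at five concentrations. TGI denotes the concentration required for complete inhibition of growth.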

With `Cc1ccccc1NC(=O)C(=O)C(C#N)c1ccc(Cl)cc1` (stereo unspecified), the TGI in assay [1], in assay [2], in assay [3], in [4], in [5] and in assay [6] was greater than 100 µM throughout. For the same molecule, the TGI in assay [7], in assay [8], in assay [9], in assay [10] and in [11] was greater than 100 µM throughout.
Turning to `CC(C)(C)OC1=C(OC(C)(C)C)C(O)(c2ccccc2)C1=O` (stereo unspecified), the TGI in assay [1], in [3], in [4], in assay [5], in assay [6] and in assay [7] was greater than 100 µM throughout. For the same molecule, the TGI in assay [12], in assay [9] and in [10] was greater than 100 µM each time.
Turning to `COc1ccc(C2CC(=O)c3c(O)cc(O)cc3O2)cc1O` (stereo unspecified), the TGI in [2], in [3], in [4], in assay [5], in assay [6] and in assay [7] was greater than 100 µM in each case. In addition, the TGI in assay [8], in assay [12], in assay [9], in assay [10] and in assay [11] was greater than 100 µM in each case.
With `COc1c(C=O)c2c(c(OC)c1OC)-c1ccc(OC)c(=O)cc1[C@@H](NC(C)=O)CC2`, the TGI in assay [1] is greater than 100 µM; in assay [2], 1.05 µM; in assay [3], greater than 100 µM; in assay [4] it was greater than 100 µM; in [5] it was 18.2 µM; in assay [6] it was greater than 100 µM. Also, the TGI is 0.0364 µM in assay [7]; 37 µM in [8]; greater than 100 µM in [12]; greater than 67.6 µM in [9]; greater than 17.8 µM in [10]; 0.218 µM in assay [11].
For `O=C(Nc1ccc(Cl)cc1Cl)C1C(=O)N(c2ccc(Cl)cc2Cl)C(=O)/C1=N\Nc1ccc([N+](=O)[O-])cc1[N+](=O)[O-]` (stereo unspecified), the TGI in assay [1], in assay [2], in [3], in assay [4], in assay [5] and in [6] was greater than 100 µM throughout. Moreover, the TGI is 66.8 µM in assay [7]; greater than 100 µM in [12]; greater than 100 µM in [9]; 74.8 µM in [10]; greater than 100 µM in assay [11].
As to `Cc1c2cc[n+](C)cc2c(C)c2c1sc1ccccc12`, the TGI amounted to 11.3 µM in assay [13]; 36.2 µM in assay [1]; 23.7 µM in assay [2]; 5.13 µM in [3]; 51.2 µM in assay [4]; 14.4 µM in assay [5]. Moreover, the TGI was determined as 7 µM in [6]; 2.57 µM in assay [7]; 2.69 µM in assay [8]; 4.04 µM in [12]; 8.41 µM in [9]; 5.57 µM in assay [10]. The TGI in assay [11] stood at 31.8 µM.
Take `ON/N=C/c1cc2c(cc1Br)OCO2`: the TGI in [1], in assay [2], in [3], in [4], in [5] and in assay [6] was greater than 386 µM in each case. Further, the TGI in assay [7], in assay [12], in assay [10] and in assay [11] was greater than 386 µM throughout.
For the molecule `CC(NS(=O)(=O)c1ccc([N+](=O)[O-])cc1)C(=O)O` (stereo unspecified), the TGI in assay [1], in assay [3], in assay [4], in [5], in assay [6] and in assay [8] was greater than 100 µM each time. Also, the TGI in assay [10] and in assay [11] was greater than 100 µM each time.
Turning to `O=C[C@@H](CO)O[C@H](C=O)c1c[nH]c(=O)[nH]c1=O`, the TGI is 307 µM in assay [13]; 267 µM in assay [1]; 513 µM in [2]; 493 µM in [4]; 265 µM in assay [6]; 183 µM in assay [14]. The TGI in [7] is 232 µM; in [15] it was 307 µM; in assay [8] it was 86.7 µM; in [12], 406 µM; in assay [9], 890 µM; in assay [10], 605 µM. Further, the TGI in assay [16] was found to be 373 µM; in assay [11], 310 µM.
On to `COc1ccc(C(=O)c2cc(OC)c(OC)c(OC)c2)cc1`, for which the TGI is 0.0452 µM in assay [13]; greater than 100 µM in assay [1]; greater than 25.8 µM in assay [2]; greater than 100 µM in assay [3]; greater than 100 µM in [4]; greater than 100 µM in [5]. Besides, the TGI is greater than 100 µM in assay [6]; greater than 100 µM in [7]; greater than 27.7 µM in assay [8]; greater than 100 µM in assay [12]; 20.2 µM in assay [10].
As for `COC(=O)[C@@]12C(=O)C=CC(=O)[C@@H]1C1C(=CC2COC(C)=O)O[C@@H]2OC3(CCCCC3)O[C@H]12` (stereo partly specified), the TGI came out at 25.1 µM in assay [13]; 24.9 µM in assay [1]; 15.5 µM in assay [2]; 15 µM in assay [3]; 22.7 µM in [4]; 50 µM in assay [5]. Besides, the TGI in assay [6] was found to be 23.6 µM; in assay [7] it was 13.5 µM; in [8], 26.3 µM; in [12], 29.6 µM; in assay [9], 51 µM; in [10], 21 µM. In addition, the TGI in assay [11] turned out to be 31.8 µM.
For `O=C(Nc1c(O)[nH]c(=S)[nH]c1=O)c1ccccc1F`, the TGI in [1], in [2], in [3], in [4], in assay [5] and in assay [7] was greater than 100 µM each time. The TGI in assay [12], in assay [9], in [10] and in [11] was greater than 100 µM in each case.
Turning to `CC1CC(C2=CC=CCS2)=Nc2ccccc2S1` (stereo unspecified), the TGI in assay [1], in assay [2], in [3], in assay [4], in [5] and in assay [6] was greater than 100 µM each time. The TGI in assay [8], in assay [12], in assay [9], in [10] and in [11] was greater than 100 µM throughout.
Take `CN(C)c1ccc2c(=O)c3ccccc3oc2n1`: the TGI in assay [3], in assay [4], in assay [5], in assay [6], in assay [7] and in assay [8] was greater than 100 µM throughout. In addition, the TGI in [12], in assay [9], in assay [10] and in assay [11] was greater than 100 µM each time.
Consider `NC1=NC(=O)/C(=C/c2ccccc2[N+](=O)[O-])C(N)=N1`, for which the TGI in assay [1], in [2], in assay [3], in assay [4], in assay [5] and in [6] was greater than 100 µM in each case. In addition, the TGI in assay [7], in [8], in [12], in assay [9], in assay [10] and in assay [11] was greater than 100 µM each time.

(Values after PubChem BioAssay (NCI).)
